In general, inhibition refers to the drop in the measured response relative to a control, in per cent. Read a high inhibition as strong suppression. In general, Ki refers to the dissociation constant of the complex between target and ligand, obtained from inhibition or displacement. By AUC(0-t) is commonly meant exposure summed from dosing to a finite time, without extrapolation to infinity. Broadly, the IC50 is the midpoint of a concentration-inhibition curve.

Structures are written as SMILES.

These results are taken from ChEMBL document CHEMBL1146860, “Bicyclo[3.1.0]hexyl urea melanin concentrating hormone (MCH) receptor-1 antagonists: impacting hERG liability via aryl modifications” (Bioorg Med Chem Lett, 2006).

One series has as its target hERG (Homo sapiens, UniProt Q12809). Put plainly: Inhibition of hERG channel by rubidium efflux assay at 5 ug/ml. The series is classed as toxicity. (hERG is a cardiac potassium channel; its block is linked to QT prolongation.)
Series [1] deals with Melanin-concentrating hormone receptor 1 (Homo sapiens, UniProt Q99705). Put plainly: Binding affinity to MCHR1.
Sequence of Melanin-concentrating hormone receptor 1 (Q99705 whole entry): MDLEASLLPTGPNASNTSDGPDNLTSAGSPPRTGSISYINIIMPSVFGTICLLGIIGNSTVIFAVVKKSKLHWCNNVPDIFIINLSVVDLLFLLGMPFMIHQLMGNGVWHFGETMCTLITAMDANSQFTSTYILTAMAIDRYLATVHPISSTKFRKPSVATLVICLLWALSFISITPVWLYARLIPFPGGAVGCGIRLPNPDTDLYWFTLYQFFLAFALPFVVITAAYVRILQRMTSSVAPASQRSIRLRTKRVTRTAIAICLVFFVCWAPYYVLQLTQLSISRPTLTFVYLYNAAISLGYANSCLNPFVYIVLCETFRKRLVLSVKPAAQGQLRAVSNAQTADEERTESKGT
Series [2] in a line: AUC (0-6h) in rat at 10 mg/kg, po. The arrangement: time < 6 hr, dose 10 mg/kg, route oral. Conditions: plasma. The series is classed as ADME, organism-based.
The target of series [3] is Voltage-gated inwardly rectifying potassium channel KCNH2 (Homo sapiens, UniProt Q12809). Kind of series: Inhibition of hERG channel by voltage clamp assay. The series is classed as toxicity.
Sequence of Voltage-gated inwardly rectifying potassium channel KCNH2 (Q12809 whole entry): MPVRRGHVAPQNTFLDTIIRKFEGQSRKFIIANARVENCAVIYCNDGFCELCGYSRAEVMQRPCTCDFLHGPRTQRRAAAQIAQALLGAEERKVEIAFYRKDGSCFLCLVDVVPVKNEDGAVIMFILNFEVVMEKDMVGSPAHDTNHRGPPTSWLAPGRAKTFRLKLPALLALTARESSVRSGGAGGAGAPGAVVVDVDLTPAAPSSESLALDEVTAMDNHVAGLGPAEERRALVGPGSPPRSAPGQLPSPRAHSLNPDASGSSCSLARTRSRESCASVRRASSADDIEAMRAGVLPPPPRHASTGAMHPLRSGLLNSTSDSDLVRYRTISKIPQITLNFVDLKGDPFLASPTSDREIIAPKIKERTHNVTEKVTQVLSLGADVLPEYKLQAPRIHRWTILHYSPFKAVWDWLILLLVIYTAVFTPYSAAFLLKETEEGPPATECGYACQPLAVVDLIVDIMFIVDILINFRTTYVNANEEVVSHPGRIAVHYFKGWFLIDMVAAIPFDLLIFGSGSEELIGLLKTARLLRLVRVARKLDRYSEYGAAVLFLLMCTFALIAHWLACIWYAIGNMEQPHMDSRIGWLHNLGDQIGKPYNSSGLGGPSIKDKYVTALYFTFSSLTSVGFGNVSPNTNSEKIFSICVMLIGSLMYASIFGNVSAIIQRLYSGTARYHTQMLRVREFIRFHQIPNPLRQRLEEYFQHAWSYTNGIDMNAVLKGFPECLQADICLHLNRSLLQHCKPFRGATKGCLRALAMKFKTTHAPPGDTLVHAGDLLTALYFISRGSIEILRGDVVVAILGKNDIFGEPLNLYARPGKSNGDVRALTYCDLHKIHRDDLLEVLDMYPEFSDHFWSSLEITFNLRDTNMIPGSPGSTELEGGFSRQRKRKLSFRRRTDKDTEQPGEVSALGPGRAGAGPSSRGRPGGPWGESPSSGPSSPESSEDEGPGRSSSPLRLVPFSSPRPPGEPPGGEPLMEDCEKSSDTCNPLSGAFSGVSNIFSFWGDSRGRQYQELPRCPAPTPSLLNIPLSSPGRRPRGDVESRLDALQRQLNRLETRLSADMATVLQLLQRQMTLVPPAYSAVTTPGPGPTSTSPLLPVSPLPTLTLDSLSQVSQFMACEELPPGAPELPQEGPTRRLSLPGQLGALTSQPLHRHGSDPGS

Sequence of hERG (Q12809 whole entry): as above

At hERG, `CCC(=O)Nc1cccc([C@]23CC[C@@H](N(CCCN4CCN(C)CC4)C(=O)Nc4ccc(F)c(Cl)c4)[C@H]2C3)c1` gave an inhibition at 5 ug/ml of 34%.
The same measure, in the same setting: under `CN1CCN(CCCN(C(=O)Nc2ccc(F)c(Cl)c2)[C@@H]2CC[C@]3(c4ccc(NC(=O)OC(C)(C)C)cc4)C[C@H]23)CC1` stands 87%.
The compound `CN1CCN(CCCN(C(=O)Nc2ccc(F)c(C(F)(F)F)c2)[C@@H]2CC[C@]3(c4ccc5onc(N)c5c4)C[C@H]23)CC1` yielded an inhibition at 5 ug/ml on hERG of 46%. This compound gave a Ki in series [1] of 46 nM.
Compound `CN1CCN(CCCN(C(=O)Nc2ccc(F)c(Cl)c2)[C@@H]2CC[C@]3(c4ccc(F)cc4)C[C@H]23)CC1` yielded an inhibition at 5 ug/ml at hERG of 87%.
In the case of `CN1CCN(CCCN(C(=O)Nc2ccc(F)c(C(F)(F)F)c2)[C@@H]2CC[C@]3(c4ccc5c(c4)CC(=O)N5)C[C@H]23)CC1`, the inhibition at 5 ug/ml against hERG is 50%. In addition, affinity in series [1] was put at a Ki of 15 nM.
In turn, `COC(=O)c1ccc([C@]23CC[C@@H](N(CCCN4CCN(C)CC4)C(=O)Nc4ccc(F)c(C(F)(F)F)c4)[C@H]2C3)cc1` (single isomer, unassigned) returned an inhibition at 5 ug/ml against hERG of 63%.
Turning to `COc1cccc([C@]23CC[C@@H](N(CCCN4CCN(C)CC4)C(=O)Nc4ccc(F)c(Cl)c4)[C@H]2C3)c1`, the inhibition at 5 ug/ml against hERG amounted to 70%. In addition, in series [1], affinity was put at a Ki of 2.7 nM.
On hERG, `CN1CCN(CCCN(C(=O)Nc2ccc(F)c(C(F)(F)F)c2)[C@@H]2CC[C@]3(c4ccc(=O)[nH]c4)C[C@H]23)CC1` came in with an inhibition at 5 ug/ml of 9%.
Regarding `CN1CCN(CCCN(C(=O)Nc2ccc(F)c(C(F)(F)F)c2)[C@@H]2CC[C@]3(c4ccc(S(C)(=O)=O)cc4)C[C@H]23)CC1`, the inhibition at 5 ug/ml against hERG turned out to be 46%.
`CN1CCN(CCCN(C(=O)Nc2ccc(F)c(Cl)c2)[C@@H]2CC[C@]3(c4cccc(NC(=O)C(C)(C)C)c4)C[C@H]23)CC1` had an inhibition at 5 ug/ml against hERG of 27%.
As to `CN1CCN(CCCN(C(=O)Nc2ccc(F)c(Cl)c2)[C@@H]2CC[C@]3(c4cccc(NC(=O)C5CC5)c4)C[C@H]23)CC1`, on hERG, the inhibition at 5 ug/ml was found to be 46%. In series [1], this compound came in with an inhibition constant (Ki) of 6.8 nM. In series [2], the AUC(0-t) at 6 h was 634 ng·h/mL.
On hERG, `CN1CCN(CCCN(C(=O)Nc2ccc(F)c(C(F)(F)F)c2)[C@@H]2CC[C@]3(c4ccc5c(N)noc5c4)C[C@H]23)CC1` gave an inhibition at 5 ug/ml of 26%. In series [3], this compound showed an IC50 of 690 nM.
On hERG, `CC(=O)Nc1ccc([C@]23CC[C@@H](N(CCCN4CCN(C)CC4)C(=O)Nc4ccc(F)c(Cl)c4)[C@H]2C3)cc1` yielded an inhibition at 5 ug/ml of 18%.
In turn, `CN1CCN(CCCN(C(=O)Nc2ccc(F)c(C(F)(F)F)c2)[C@@H]2CC[C@]3(c4ccsc4)C[C@H]23)CC1` had an inhibition at 5 ug/ml on hERG of 75%.
Consider `CN1CCN(CCCN(C(=O)Nc2ccc(F)c(Cl)c2)[C@@H]2CC[C@]3(c4cccc(N5CCCC5=O)c4)C[C@H]23)CC1`, for which the inhibition at 5 ug/ml at hERG turned out to be 14%.
Still for that read-out and setting: under `CNC(=O)c1ccc([C@]23CC[C@@H](N(CCCN4CCN(C)CC4)C(=O)Nc4ccc(F)c(C(F)(F)F)c4)[C@H]2C3)cc1` stands 25%.
Compound `CCNC(=O)Nc1cccc([C@]23CC[C@@H](N(CCCN4CCN(C)CC4)C(=O)Nc4ccc(F)c(Cl)c4)[C@H]2C3)c1` came in with an inhibition at 5 ug/ml against hERG of 17%. Moreover, affinity in series [1] was put at a Ki of 28 nM. For the same compound, in series [2], the area under the curve AUC(0-t) at 6 h stood at 127 ng·h/mL.
For `CN1CCN(CCCN(C(=O)Nc2ccc(F)c(Cl)c2)[C@@H]2CC[C@]3(c4cccc(N5CCC5)c4)C[C@H]23)CC1`, the inhibition at 5 ug/ml against hERG is 29%.
`CN1CCN(CCCN(C(=O)Nc2ccc(F)c(Cl)c2)[C@@H]2CC[C@]3(c4ccccc4)C[C@H]23)CC1` showed an inhibition at 5 ug/ml against hERG of 58%.
`CN1CCN(CCCN(C(=O)Nc2ccc(F)c(C(F)(F)F)c2)[C@@H]2CC[C@]3(c4nccs4)C[C@H]23)CC1` showed an inhibition at 5 ug/ml at hERG of 27%.
The compound `CN1CCN(CCCN(C(=O)Nc2ccc(F)c(Cl)c2)[C@@H]2CC[C@]3(c4ccc(N)cc4)C[C@H]23)CC1` returned an inhibition at 5 ug/ml at hERG of 16%. Also, the Ki in series [1] amounted to 4.4 nM.
On to `CC(C)C(=O)Nc1cccc([C@]23CC[C@@H](N(CCCN4CCN(C)CC4)C(=O)Nc4ccc(F)c(Cl)c4)[C@H]2C3)c1`, for which the inhibition at 5 ug/ml against hERG came to 37%. In series [1], this compound displayed a Ki of 15.1 nM. The AUC(0-t) at 6 h in series [2] amounted to 339 ng·h/mL.
Compound `CN1CCN(CCCN(C(=O)Nc2ccc(F)c(Cl)c2)[C@@H]2CC[C@]3(c4cccc(N)c4)C[C@H]23)CC1` came in with an inhibition at 5 ug/ml on hERG of 25%. This compound also gave an inhibition constant Ki in series [1] of 9.6 nM.
As to `CN1CCN(CCCN(C(=O)Nc2ccc(F)c(C(F)(F)F)c2)[C@@H]2CC[C@]3(c4ccc(C#N)cc4)C[C@H]23)CC1`, on hERG, the inhibition at 5 ug/ml turned out to be 86%. Moreover, the 50% inhibitory concentration (IC50) in series [3] turned out to be 52 nM.
For the compound `CC(=O)Nc1cccc([C@]23CC[C@@H](N(CCCN4CCN(C)CC4)C(=O)Nc4ccc(F)c(Cl)c4)[C@H]2C3)c1`, the inhibition at 5 ug/ml against hERG is 19%.
On hERG, `COc1ccc([C@]23CC[C@@H](N(CCCN4CCN(C)CC4)C(=O)Nc4ccc(F)c(C(F)(F)F)c4)[C@H]2C3)cn1` gave an inhibition at 5 ug/ml of 36%.
`CN1CCN(CCCN(C(=O)Nc2ccc(F)c(Cl)c2)[C@@H]2CC[C@]3(c4cccnc4)C[C@H]23)CC1` gave an inhibition at 5 ug/ml against hERG of 97%.
